Source: ChEMBL document CHEMBL1132161, “Therapeutic potential and strategies for inhibiting tumor necrosis factor-alpha” (J Med Chem, 1999)

Assay: Compound was tested for the inhibition of IL1-beta and interleukin-6-production
Type: functional

IC50: 9 µM
SMILES: Nc1ncnc2c1ncn2[C@@H]1CC[C@@H](O)C1
